Values after ≈ are worked out from the molar mass of the structure shown.
Assays:
human sEH = molecular target: T1, human sEH (Homo sapiens, UniProt P34913); assay: sEH inhibition, fluorescent-based assay; assay type: biochemical; conditions: for reduction of the potency (hsEH) relative to 12: compared with 12
T1 sequence (P34913 1-555): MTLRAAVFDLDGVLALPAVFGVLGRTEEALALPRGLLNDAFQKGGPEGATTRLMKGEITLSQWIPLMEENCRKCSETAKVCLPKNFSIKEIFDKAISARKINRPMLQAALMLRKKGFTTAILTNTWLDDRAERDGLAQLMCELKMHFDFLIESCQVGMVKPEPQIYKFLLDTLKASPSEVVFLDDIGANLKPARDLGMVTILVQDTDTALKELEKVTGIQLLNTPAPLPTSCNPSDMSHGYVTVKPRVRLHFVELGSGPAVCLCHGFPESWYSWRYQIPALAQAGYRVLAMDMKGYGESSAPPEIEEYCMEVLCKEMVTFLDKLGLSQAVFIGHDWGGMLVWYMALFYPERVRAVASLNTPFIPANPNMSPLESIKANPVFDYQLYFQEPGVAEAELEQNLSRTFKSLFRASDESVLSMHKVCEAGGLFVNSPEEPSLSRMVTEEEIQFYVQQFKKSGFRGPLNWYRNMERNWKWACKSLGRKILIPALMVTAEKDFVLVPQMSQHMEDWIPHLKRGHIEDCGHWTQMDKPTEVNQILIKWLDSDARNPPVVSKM

hLOX-5 = molecular target: T2, hLOX-5 (Homo sapiens, UniProt P09917); assay: Inhibition of human lipoxygenase-5; assay type: biochemical; conditions: selectivity
T2 sequence (P09917 1-674): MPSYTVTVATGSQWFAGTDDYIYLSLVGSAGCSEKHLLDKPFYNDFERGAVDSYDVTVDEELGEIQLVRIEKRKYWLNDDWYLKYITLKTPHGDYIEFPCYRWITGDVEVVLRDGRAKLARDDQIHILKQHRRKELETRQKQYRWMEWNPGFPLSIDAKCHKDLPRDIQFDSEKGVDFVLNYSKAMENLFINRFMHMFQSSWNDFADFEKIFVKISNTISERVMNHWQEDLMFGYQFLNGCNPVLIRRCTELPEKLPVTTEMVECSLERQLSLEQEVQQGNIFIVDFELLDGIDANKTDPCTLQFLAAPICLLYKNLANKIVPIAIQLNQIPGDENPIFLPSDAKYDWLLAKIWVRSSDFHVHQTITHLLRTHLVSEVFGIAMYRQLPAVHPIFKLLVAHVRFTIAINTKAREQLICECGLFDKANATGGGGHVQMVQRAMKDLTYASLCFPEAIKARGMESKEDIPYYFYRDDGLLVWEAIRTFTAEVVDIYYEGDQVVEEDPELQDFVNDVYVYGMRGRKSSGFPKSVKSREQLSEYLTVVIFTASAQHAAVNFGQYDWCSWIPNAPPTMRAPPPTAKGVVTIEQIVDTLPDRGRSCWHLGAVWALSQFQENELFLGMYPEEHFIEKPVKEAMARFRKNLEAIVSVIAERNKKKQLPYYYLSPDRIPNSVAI

[1] = Solubility by light scattering; assay type: physicochemical; conditions: 1% DMSO:99% PBS buffer
[2] = system: Peripheral Blood Mononuclear Cells (PBMC); assay: Cytotoxicity in PBMCs cells + 1.5% PHA; assay type: cell-based; conditions: highest concentration tested (20 μM)
cerulein-induced AP [3] = assay: In vivo efficacy, cerulein-induced AP, post-induction; parameters: species or system C57BL/6J mice; conditions: for inflammatory (TNF-α, IL-1β and MCP-1) and ER stress (ATF3) markers mRNA: post-induction, vs cerulein only
[4] = system: human recombinant cytochrome P450 enzymes, mainly CYP1A2, CYP2C9, CYP2C19, CYP2D6 and CYP3AE; assay: Cytochrome P450 inhibition assay; assay type: in vitro ADME
[5] = system: AR42J pancreatic acinar rat cell line; assay: In vitro proof of concept: cerulein-induced AP in AR42J cells; assay type: cell-based; conditions: 60 μM, cerulein 10 nM
[6] = Maximum tolerated dose study; assay type: in vivo; conditions: mice, ip daily, 5, 10, 20 and 80 mg/kg, five consecutive days
cerulein-induced AP [7] = assay: In vivo efficacy, cerulein-induced AP, pre-induction; parameters: species or system C57BL/6J mice
[8] = Pharmacokinetic study in mouse; conditions: IP, 1 mg/kg
hERG channel = hERG channel (Homo sapiens, UniProt Q12809); assay: hERG inhibition; conditions: at 10 μM
Chain of hERG channel (Q12809 whole entry): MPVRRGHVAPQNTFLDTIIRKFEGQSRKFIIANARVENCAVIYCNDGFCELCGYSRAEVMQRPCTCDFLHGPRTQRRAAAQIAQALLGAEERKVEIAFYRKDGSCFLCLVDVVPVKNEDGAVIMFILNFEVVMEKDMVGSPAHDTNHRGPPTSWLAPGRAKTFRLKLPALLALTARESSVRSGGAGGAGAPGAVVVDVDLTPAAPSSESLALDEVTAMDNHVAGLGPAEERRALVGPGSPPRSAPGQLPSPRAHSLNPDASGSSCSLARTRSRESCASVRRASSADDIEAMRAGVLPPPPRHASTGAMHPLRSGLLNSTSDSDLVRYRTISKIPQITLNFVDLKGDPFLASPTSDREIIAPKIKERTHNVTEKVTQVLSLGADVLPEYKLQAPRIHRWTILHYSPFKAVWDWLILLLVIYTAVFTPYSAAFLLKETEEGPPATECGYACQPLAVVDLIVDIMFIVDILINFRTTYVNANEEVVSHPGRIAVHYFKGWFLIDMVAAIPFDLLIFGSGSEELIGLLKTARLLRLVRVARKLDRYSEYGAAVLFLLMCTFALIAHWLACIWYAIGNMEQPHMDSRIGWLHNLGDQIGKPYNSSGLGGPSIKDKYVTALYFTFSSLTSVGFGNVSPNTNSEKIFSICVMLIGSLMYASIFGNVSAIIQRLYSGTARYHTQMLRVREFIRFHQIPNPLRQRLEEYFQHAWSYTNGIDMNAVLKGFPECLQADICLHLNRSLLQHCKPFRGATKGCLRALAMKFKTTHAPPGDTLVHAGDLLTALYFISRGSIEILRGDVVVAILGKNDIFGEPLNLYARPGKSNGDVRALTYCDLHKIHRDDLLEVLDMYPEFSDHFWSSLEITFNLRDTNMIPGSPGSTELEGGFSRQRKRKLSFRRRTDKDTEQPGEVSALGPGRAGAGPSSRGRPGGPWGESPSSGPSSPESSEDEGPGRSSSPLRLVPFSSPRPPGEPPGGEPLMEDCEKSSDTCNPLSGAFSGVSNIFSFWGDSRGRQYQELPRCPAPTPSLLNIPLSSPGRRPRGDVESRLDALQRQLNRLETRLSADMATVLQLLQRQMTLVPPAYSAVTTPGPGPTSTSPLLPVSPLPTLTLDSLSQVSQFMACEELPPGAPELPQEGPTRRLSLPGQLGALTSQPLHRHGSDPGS

CCC(=O)N1CCC(NC(=O)NC23CC4CC(CC(C4)O2)C3)CC1 [Compound 24, 1-(2-Oxaadamantan-1-yl)-3-(1-propionylpiperidin-4-yl)urea]
reduction of the potency (hsEH) relative to 12 (human sEH): 10–15 fold | inhibition of hLOX-5 (hLOX-5): displayed significant inhibition

O=C(Nc1ccc(F)c(F)c1F)NC12CC3CC(C1)OC(C3)C2 [Compound 4, 1-(2-oxaadamant-5-yl)-3-(2,3,4-trifluorophenyl)urea]
IC50 (human sEH): 47.4 nM

O=C(NC1CCN(Cc2ccccc2)CC1)NC12CC3CC(CC(C3)O1)C2 [Compound 15, 1-(2-Oxaadamant-1-yl)-3-(1-benzylpiperidin-4-yl)urea]
reduction of the potency (hsEH) relative to 12 (human sEH): ~40 fold

O=C(NC1CCN(C(=O)C2CCOCC2)CC1)NC12CC3CC(CC(C3)O1)C2 [Compound 19, 1-(2-Oxaadamant-1-yl)-3-(1-(tetrahydro-2H-pyran-4-carbonyl)piperidin-4-yl)urea]
reduction of the potency (hsEH) relative to 12 (human sEH): 10–15 fold

O=C(NC1CCN(C(=O)c2cccnc2)CC1)NC12CC3CC(CC(C3)O1)C2 [Compound 20, 1-(2-Oxaadamant-1-yl)-3-(1-nicotinoylpiperidin-4-yl)urea]
drop in inhibitory activity (hsEH) relative to 21 (human sEH; 3-pyridyl vs 2-fluorophenyl (21)): 3 folds

CC(=O)N1CCC(NC(=O)NC23CC4CC(CC(C4)C2)C3)CC1 [Compound 1, 1-(1-Acetyl-piperidin-4-yl)-3-adamantan-1-yl-urea]
solubility at 2 h [1]: 24 µM (≈ 7.67 µg/mL)

O=C(NC1CCN(C(=O)c2ccccc2F)CC1)NC12CC3CC(CC(C3)O1)C2 [Compound 21, 1-(2-Oxaadamant-1-yl)-3-(1-(2-fluorobenzoyl)piperidin-4-yl)urea]
cytotoxicity in the PBMC [2]: not cytotoxic | inhibition of hLOX-5 (hLOX-5): displayed significant inhibition

CC(C)S(=O)(=O)N1CCC(NC(=O)NC23CC4CC(CC(C4)O2)C3)CC1 [Compound 22, 1-(2-Oxaadamant-1-yl)-3-(1-(isopropylsulfonyl)piperidin-4-yl)urea]
cytotoxicity in the PBMC [2]: not cytotoxic | inflammatory (TNF-α, IL-1β and MCP-1) and ER stress (ATF3) markers mRNA (cerulein-induced AP [3]; 3 mg/kg): did not cause a significant reduction | inflammatory (TNF-α, IL-1β and MCP-1) and ER stress (ATF3) markers mRNA (cerulein-induced AP [3]; 30 mg/kg): significant reduction | cerulein-induced edema and inflammation (H&E histology) (cerulein-induced AP [3]; treated after the induction of AP): significant decrease | potency inhibiting the different cytochromes tested [4]: higher than 10 μM | increase in the expression of IL-6, CHOP and TRB3 caused by cerulein [5]: completely abolished | increment in TNF-α caused by cerulein exposure [5]: strongly attenuated | toxic effects (body weight, behavior problems, petechiae) [6]: No toxic effects were observed | inhibition of hLOX-5 (hLOX-5): displayed significant inhibition | increase of inflammatory (TNF-α, IL1-β and MCP-1) and ER stress (ATF3) markers produced by cerulein (cerulein-induced AP [7]; pre-induction, 30 mg/kg): significantly reduced | cerulein-induced edema and inflammation (H&E histology) (cerulein-induced AP [7]; treated before the induction of AP): significant decrease | Cl [8]: 473.5 mL/min/kg | inhibition on hERG (hERG channel): minimal inhibition

O=C(Nc1ccc(F)c(F)c1F)NC12OC3C4C5CC(C6C5C3C61)C42 (stereo not shown) [Compound 9, 1-(4-oxahexacyclo[5.4.1.0^2,6.0^3,10.0^5,9.0^8,11]dodecan-3-yl)-3-(2,3,4-trifluorophenyl)urea]
IC50 (human sEH): 31.3 nM

CC(=O)N1CCC(NC(=O)NC23CC4CC(CC(C4)O2)C3)CC1 [Compound 12, 1-(1-acetylpiperidin-4-yl)-3-(oxaadamant-1-yl)urea]
cytotoxicity in the PBMC [2]: not cytotoxic | potency inhibiting the different cytochromes tested [4]: higher than 10 μM | inhibition on hERG (hERG channel): minimal inhibition

O=C(NC1CCN(C(=O)C2CC2)CC1)NC12CC3CC(CC(C3)O1)C2 [Compound 23, 1-(2-Oxaadamant-1-yl)-3-(1-(cyclopropanecarbonyl)-piperidin-4-yl)urea]
reduction of the potency (hsEH) relative to 12 (human sEH): 10–15 fold

CS(=O)(=O)N1CCC(NC(=O)NC23CC4CC(CC(C4)O2)C3)CC1 [Compound 26, 1-(2-Oxaadamantan-1-yl)-3-(1-(methylsulfonyl)piperidin-4-yl)urea]
reduction of the potency (hsEH) relative to 12 (human sEH): eight
